pIC50: −log10 of the molar value.
Experiments:
human JAK2 = human JAK2 (Homo sapiens (Human), UniProt O60674); settings: read-out: JAK2 IC50
human FAK = human FAK (Homo sapiens (Human), UniProt Q05397); settings: read-out: FAK IC50
human FAK, sequence (Q05397 whole entry): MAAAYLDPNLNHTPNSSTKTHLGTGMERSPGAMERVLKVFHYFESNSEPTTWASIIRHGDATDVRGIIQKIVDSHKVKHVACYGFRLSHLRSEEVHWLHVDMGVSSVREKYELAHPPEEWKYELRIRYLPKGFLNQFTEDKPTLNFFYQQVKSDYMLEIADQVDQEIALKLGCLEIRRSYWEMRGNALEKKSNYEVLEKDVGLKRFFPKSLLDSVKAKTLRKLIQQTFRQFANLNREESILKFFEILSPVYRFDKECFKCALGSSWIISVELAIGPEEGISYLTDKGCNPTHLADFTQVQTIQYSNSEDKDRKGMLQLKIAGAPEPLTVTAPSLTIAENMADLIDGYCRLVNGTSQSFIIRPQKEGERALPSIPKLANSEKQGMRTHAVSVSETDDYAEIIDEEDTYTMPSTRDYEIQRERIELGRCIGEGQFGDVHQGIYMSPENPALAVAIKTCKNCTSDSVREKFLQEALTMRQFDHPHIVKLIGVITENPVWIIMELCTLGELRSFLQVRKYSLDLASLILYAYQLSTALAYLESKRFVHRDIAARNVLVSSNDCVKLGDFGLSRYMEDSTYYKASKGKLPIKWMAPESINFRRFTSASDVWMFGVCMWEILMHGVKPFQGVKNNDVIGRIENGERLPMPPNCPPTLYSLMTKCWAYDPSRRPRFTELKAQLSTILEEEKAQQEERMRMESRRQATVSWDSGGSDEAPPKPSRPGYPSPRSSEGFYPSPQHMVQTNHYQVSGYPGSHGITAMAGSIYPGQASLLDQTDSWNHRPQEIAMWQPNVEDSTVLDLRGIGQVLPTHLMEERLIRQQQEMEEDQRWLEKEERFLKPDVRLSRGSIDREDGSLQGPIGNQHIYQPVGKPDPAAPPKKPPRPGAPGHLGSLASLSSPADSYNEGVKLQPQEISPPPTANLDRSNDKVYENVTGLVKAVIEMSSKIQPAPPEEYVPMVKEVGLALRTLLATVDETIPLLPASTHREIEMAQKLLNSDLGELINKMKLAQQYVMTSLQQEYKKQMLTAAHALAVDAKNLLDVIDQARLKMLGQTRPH

human JAK2, sequence (O60674 815-1132): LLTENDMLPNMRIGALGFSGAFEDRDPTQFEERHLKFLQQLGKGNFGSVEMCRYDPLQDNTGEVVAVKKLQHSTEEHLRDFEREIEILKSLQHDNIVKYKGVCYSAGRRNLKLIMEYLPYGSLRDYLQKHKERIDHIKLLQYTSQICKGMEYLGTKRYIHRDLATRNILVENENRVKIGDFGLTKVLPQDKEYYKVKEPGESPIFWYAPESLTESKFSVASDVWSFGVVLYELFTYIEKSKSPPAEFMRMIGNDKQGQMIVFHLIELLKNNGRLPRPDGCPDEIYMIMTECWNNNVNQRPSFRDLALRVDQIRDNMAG

| Structure (SMILES) | pIC50 (human JAK2) | pIC50 (human FAK) |
| --- | --- | --- |
| CS(=O)(=O)c1ccc(-c2cccc3nc(Nc4cccc(CN5CCS(=O)(=O)CC5)c4)nn23)cc1 [Example 121, N-{3-[(1,1-dioxidothiomorpholin-4-yl)methyl]phenyl}-5-[4-(methylsulfonyl)phenyl][1,2,4]triazolo[1,5-a]pyridin-2-amine] | 9.26 | 6.00 |
| CN1CCN(c2ccc(Nc3nc4c(Nc5ccccc5CN(C)S(C)(=O)=O)cccn4n3)cc2)CC1 [Example 171, N-Methyl-N-(2-{2-[4-(4-methyl-piperazin-1-yl)-phenylamino]-[1,2,4]triazolo[1,5-a]pyridin-8-ylamino}-benzyl)-methanesulfonamide] | 7.15 | 6.00 |
| CN1CCN(c2ccc(Nc3nc4c(-c5ccc(S(C)(=O)=O)cc5)cccn4n3)cc2)CC1 [Example 32, [8-(4-Methanesulfonyl-phenyl)-[1,2,4]triazolo[1,5-a]pyridin-2-yl]-[4-(4-methyl-piperazin-1-yl)-phenyl]-amine] | 8.62 | 6.39 |
| CN1CCN(Cc2cccc(Nc3nc4c(-c5ccc(S(C)(=O)=O)cc5)cccn4n3)c2)CC1 [Example 116, [8-(4-Methanesulfonyl-phenyl)-[1,2,4]triazolo[1,5-a]pyridin-2-yl]-[3-(4-methyl-piperazin-1-ylmethyl)-phenyl]-amine] | 8.51 | 5.52 |
| CCOc1ccc(C(F)(F)F)cc1-c1cccn2nc(Nc3ccc4c(c3)CCN(CC(=O)N(C)C)CC4)nc12 [Example 321, 2-{7-[8-(2-Ethoxy-5-trifluoromethyl-phenyl)-[1,2,4]triazolo[1,5-a]pyridin-2-ylamino]-1,2,4,5-tetrahydro-3-benzazepin-3-yl}-N,N-dimethyl-acetamide] | 6.65 | 5.75 |
| CCn1cc(Nc2nc3c(Oc4ccc(S(C)(=O)=O)cc4)cccn3n2)cn1 [Example 211, (1-Ethyl-1H-pyrazol-4-yl)-[8-(4-methanesulfonyl-phenoxy)-[1,2,4]triazolo[1,5-a]pyridin-2-yl]-amine] | 5.94 | 5.00 |
| CS(=O)(=O)c1ccc(-c2cccc3nc(Nc4cccc(CN5CCOCC5)c4)nn23)cc1 [Example 117, [5-(4-Methanesulfonyl-phenyl)-[1,2,4]triazolo[1,5-a]pyridin-2-yl]-(3-morpholin-4-ylmethyl-phenyl)-amine] | 9.02 | 5.83 |
| CN1CCN(c2ccc(Nc3nc4c(NCC5CCN(C(=O)OC(C)(C)C)C5)cccn4n3)cc2)CC1 (stereo not drawn) [Example 163, 3-({2-[4-(4-Methyl-piperazin-1-yl)-phenylamino]-[1,2,4]triazolo[1,5-a]pyridin-8-ylamino}-methyl)-pyrrolidine-1-carboxylic acid tert-butyl ester] | 7.01 | 5.00 |
| COc1ccccc1CNc1cccn2nc(Nc3ccnc(C)c3)nc12 [Example 404, N(8)-(2-Methoxy-benzyl)-N(2)-(2-methyl-pyridin-4-yl)-[1,2,4]triazolo[1,5-a]pyridine-2,8-diamine] | 7.61 | 5.59 |
| COc1ccc(C(F)(F)F)cc1-c1cccn2nc(Nc3ccc(OCCN4CCCC4)cc3)nc12 [Example 259, [8-(2-Methoxy-5-trifluoromethyl-phenyl)-[1,2,4]triazolo[1,5-a]pyridin-2-yl]-[4-(2-pyrrolidin-1-yl-ethoxy)-phenyl]-amine] | 7.13 | 5.47 |
| CN1CCN(c2cccc(Nc3nc4c(NCc5ccccc5CN(C)S(C)(=O)=O)cccn4n3)c2)CC1 [Example 157, N-Methyl-N-[2-({2-[3-(4-methyl-piperazin-1-yl)-phenylamino]-[1,2,4]triazolo[1,5-a]pyridin-8-ylamino}-methyl)-benzyl]-methanesulfonamide] | 6.66 | 6.52 |
| COc1ccc(C(F)(F)F)cc1-c1cccc2nc(Nc3ccc4c(c3)CCN(CC(=O)N(C)C)CC4)nn12 [Example 237] | 7.27 | 6.15 |
| COc1ccc(Nc2nc3c(Nc4ccc(S(C)(=O)=O)cc4)cccn3n2)cc1 [Example 38, N(8)-(4-Methanesulfonyl-phenyl)-N(2)-(4-methoxy-phenyl)-[1,2,4]triazolo[1,5-a]pyridine-2,8-diamine] | 6.33 | 5.00 |
| C[C@H](O)CN1CCN(c2cccc(Nc3nc4c(-c5ccc(S(C)(=O)=O)cc5)cccn4n3)c2)CC1 [Example 142, (S)-1-(4-{3-[8-(4-Methanesulfonyl-phenyl)-[1,2,4]triazolo[1,5-a]pyridin-2-ylamino]-phenyl}-piperazin-1-yl)-propan-2-ol] | 9.12 | 6.03 |
| CN(c1ccccc1CNc1cccn2nc(Nc3ccc(OCCN4CCCC4)cc3)nc12)S(C)(=O)=O [Example 150, N-Methyl-N-[2-({2-[4-(2-pyrrolidin-1-yl-ethoxy)-phenylamino]-[1,2,4]triazolo[1,5-a]pyridin-8-ylamino}-methyl)-phenyl]-methanesulfonamide] | 7.36 | 7.89 |
| CS(=O)(=O)c1ccccc1CNc1cccn2nc(Nc3ccc(OCCN4CCCC4)cc3)nc12 [Example 141, N(8)-(2-Methanesulfonyl-benzyl)-N(2)-[4-(2-pyrrolidin-1-yl-ethoxy)-phenyl]-[1,2,4]triazolo[1,5-a]pyridine-2,8-diamine] | 7.82 | 7.01 |
| CC(C)S(=O)(=O)c1ccc(-c2cccn3nc(Nc4ccc(N5CCN(C)CC5)cc4)nc23)cc1 [Example 52, [4-(4-Methyl-piperazin-1-yl)-phenyl]-{8-[4-(propane-2-sulfonyl)-phenyl]-[1,2,4]triazolo[1,5-a]pyridin-2-yl}-amine] | 8.68 | 6.51 |
| COc1cc(F)ccc1-c1cccn2nc(Nc3ccc4c(c3)CCN(CC(=O)N(C)C)CC4)nc12 [Example 324, 2-{7-[8-(4-Fluoro-2-methoxy-phenyl)-[1,2,4]triazolo[1,5-a]pyridin-2-ylamino]-1,2,4,5-tetrahydro-3-benzazepin-3-yl}-N,N-dimethyl-acetamide] | 7.33 | 5.52 |
| CN1CCN(c2cccc(Nc3nc4cccc(-c5ccc(S(C)(=O)=O)cc5)n4n3)c2)CC1 [Example 92, [5-(4-Methanesulfonyl-phenyl)-[1,2,4]triazolo[1,5-a]pyridin-2-yl]-[3-(4-methyl-piperazin-1-yl)-phenyl]-amine] | 8.55 | 5.90 |
| CN1CCN(c2ccc(Nc3nc4c(NCc5cccc(S(C)(=O)=O)c5)cccn4n3)cc2)CC1 [Example 160, N(8)-(3-Methanesulfonyl-benzyl)-N(2)-[4-(4-methyl-piperazin-1-yl)-phenyl]-[1,2,4]triazolo[1,5-a]pyridine-2,8-diamine] | 6.58 | 5.00 |
| CS(=O)(=O)c1ccc(-c2cccn3nc(Nc4cccc(CN5CCOCC5)c4)nc23)cc1 [Example 46, [8-(4-Methanesulfonyl-phenyl)-[1,2,4]triazolo[1,5-a]pyridin-2-yl]-(3-morpholin-4-ylmethyl-phenyl)-amine] | 9.22 | 6.02 |
| COc1ncc(C(F)(F)F)cc1-c1cccn2nc(Nc3ccc(C4CCNCC4)cc3)nc12 [Example 278, [8-(2-Methoxy-5-trifluoromethyl-pyridin-3-yl)-[1,2,4]triazolo[1,5-a]pyridine-2-yl]-(4-piperidine-4-yl-phenyl)-amine] | 6.88 | 5.00 |
| CN(C)C(=O)CN1CCC(c2ccc(Nc3nc4c(-c5ccc[nH]c5=O)cccn4n3)cc2)CC1 [Example 275, N,N-Dimethyl-2(4-{4-[8-(2-oxo-1,2-dihydro-pyridin-3-yl)-[1,2,4]triazolo[1,5-a]pyridine-2-ylamino]-phenyl}-piperidin-1-yl)-acetamide] | 6.57 | 5.70 |
| CN1CCN(c2cncc(Nc3nc4c(-c5ccc(S(C)(=O)=O)cc5)cccn4n3)n2)CC1 [Example 386, [8-(4-Methanesulfonyl-phenyl)-[1,2,4]triazolo[1,5-a]pyridin-2-yl]-(4-methyl-3,4,5,6-tetrahydro-2H-[1,2′]bipyrazinyl-6′-yl)-amine] | 7.52 | 5.00 |
| CCN1CCN(c2cccc(Nc3nc4c(-c5ccc(P(C)(C)=O)cc5)cccn4n3)c2)C(=O)C1 [Example 208, 1-(3-{8-[4-(Dimethyl-phosphinoyl)-phenyl]-[1,2,4]triazolo[1,5-a]pyridin-2-ylamino}-phenyl)-4-ethyl-piperazin-2-one] | 7.88 | 5.00 |
| CN1CCN(c2cccc(Nc3nc4c(C#Cc5ccccc5N(C)S(C)(=O)=O)cccn4n3)c2)CC1 [Example 192, N-Methyl-N-(2-{2-[3-(4-methyl-piperazin-1-yl)-phenylamino]-[1,2,4]triazolo[1,5-a]pyridin-8-ylethynyl}-phenyl)-methanesulfonamide] | 7.62 | 5.62 |
| CS(=O)(=O)c1cccc(-c2cccn3nc(Nc4ccc(OCCN5CCCC5)cc4)nc23)c1 [Example 13, [8-(3-Methanesulfonyl-phenyl)-[1,2,4]triazolo[1,5-a]pyridin-2-yl]-[4-(2-pyrrolidin-1-yl-ethoxy)-phenyl]-amine] | 8.52 | 6.28 |
| CS(=O)(=O)c1ccc(OCC(F)F)c(-c2cccn3nc(Nc4ccc5c(c4)CCNCC5)nc23)c1 [Example 372, {8-[2-(2,2-Difluoro-ethoxy)-5-methanesulfonyl-phenyl]-[1,2,4]triazolo[1,5-a]pyridin-2-yl}-(2,3,4,5-tetrahydro-1H-3-benzazepin-7-yl)-amine] | 6.22 | 5.00 |
| CN1CCC(c2cccc(Nc3nc4c(-c5cccc(N(C)S(C)(=O)=O)c5)cccn4n3)c2)CC1 [Example 129, N-Methyl-N-(3-{2-[3-(1-methyl-piperidin-4-yl)-phenylamino]-[1,2,4]triazolo[1,5-a]pyridin-8-yl}-phenyl)-methanesulfonamide] | 8.05 | 6.12 |
| COc1ccc(C(F)(F)F)cc1-c1cccn2nc(Nc3ccc(N4CCN(C)CC4)cc3)nc12 [Example 254, [8-(2-Methoxy-5-trifluoromethyl-phenyl)-[1,2,4]triazolo[1,5-a]pyridin-2-yl]-[4-(4-methyl-piperazine-1-yl)-phenyl]-amine] | 7.50 | 5.97 |

Source: patent US8501936B2 (priority 2009, dated 2013)
